Active and inactive are the calls of the source. Unless noted, no cut-off for these calls is given here.
Assays:
NIH3T3 = test: NIH-3T3 viability with fluconazole co-treatment – cell-based, Alamar Blue, dry powder, set 2, cytotoxicity control for antifungal resistance reversal project, dose response (AID 488911); type: functional; details: Mus musculus
Candida albicans [1] = test: single-agent toxicity toward C. albicans – CaCi-2 strain, no fluconazole, dry powder, set 4, counter-screen for reversing antifungal drug resistance, dose response (AID 488932); type: functional, organism-based
Candida albicans [2] = test: C. albicans growth inhibition with fluconazole – CaCi-2 strain, Alamar Blue, dry powder, set 4, dose response (AID 488943); type: functional, organism-based
Candida albicans [3] = test: resistant Candida growth with fluconazole co-treatment – CaCi-8 strain, Alamar Blue, dry powder, set 2, dose response (AID 488909); type: functional, organism-based
Candida albicans [4] = test: fluconazole-resistant Candida strain growth inhibitors – CaCi-8 strain, dry powder, set 4, dose response (AID 488950); type: functional, organism-based
Tumor necrosis factor = Tumor necrosis factor (Homo sapiens, UniProt P01375); test: analog potency on TNFa NF-kB signaling – cell-based, revised, SAR follow-up (AID 2337); type: functional
Chain of Tumor necrosis factor (P01375 whole entry): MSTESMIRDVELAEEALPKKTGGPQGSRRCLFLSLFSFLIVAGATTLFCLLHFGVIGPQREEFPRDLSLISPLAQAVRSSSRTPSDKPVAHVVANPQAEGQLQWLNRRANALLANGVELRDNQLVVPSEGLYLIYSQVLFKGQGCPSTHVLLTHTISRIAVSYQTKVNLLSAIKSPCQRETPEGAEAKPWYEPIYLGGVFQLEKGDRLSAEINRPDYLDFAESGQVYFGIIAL

H4 [5] = test: inhibitors of control reporter signal in H4 cells – cell-based, plate reader, dry powder samples, counter-screen for prion reporter project, dose response (AID 540255); type: functional; details: Homo sapiens
[6] = biological target: Luciferin 4-monooxygenase (Photinus pyralis, UniProt P08659); test: inhibition of purified Photinus pyralis luciferase – biochemical, dry powder samples, plate reader, dose response (AID 588451)
Chain of Luciferin 4-monooxygenase (P08659 whole entry): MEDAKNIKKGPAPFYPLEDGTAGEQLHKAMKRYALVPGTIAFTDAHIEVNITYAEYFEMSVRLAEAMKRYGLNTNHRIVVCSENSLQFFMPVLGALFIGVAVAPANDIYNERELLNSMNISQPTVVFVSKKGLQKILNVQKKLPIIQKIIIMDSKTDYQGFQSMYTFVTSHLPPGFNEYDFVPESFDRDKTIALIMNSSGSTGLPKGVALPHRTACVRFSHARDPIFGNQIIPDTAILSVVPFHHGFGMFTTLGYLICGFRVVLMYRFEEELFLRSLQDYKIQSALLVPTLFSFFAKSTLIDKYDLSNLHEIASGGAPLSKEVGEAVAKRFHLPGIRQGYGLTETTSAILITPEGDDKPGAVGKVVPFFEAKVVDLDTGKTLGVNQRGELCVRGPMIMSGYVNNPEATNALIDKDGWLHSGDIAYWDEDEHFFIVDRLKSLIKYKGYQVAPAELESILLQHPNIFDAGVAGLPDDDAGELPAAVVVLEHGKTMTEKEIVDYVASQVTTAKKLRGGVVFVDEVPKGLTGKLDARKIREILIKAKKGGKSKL

H4 [7] = test: Amyloid Precursor 5' UTR neuroblastoma cell reporter line Measured in Cell-Based System Using Plate Reader - 2078-04_Inhibitor_Dose_DryPowder_Activity. [Related pubchem assays (depositor defined):AID488894]; type: functional; details: Homo sapiens
HEK293 = test: cells; details: Homo sapiens;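 note: cells exposed to compound for 14 hours overnight before viability readout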
H4 [8] = test: Inhibitors of Prion Protein 5' UTR mRNA Measured in Cell-Based System Using Plate Reader - 2078-01_Inhibitor_Dose_DryPowder_Activity. [Related pubchem assays (depositor defined):AID488894]; type: functional; details: Homo sapiens
[9] = biological target: T1, Nucleotide-binding oligomerization domain-containing protein 1 (Homo sapiens, UniProt Q9Y239); test: blockers of NOD1 pathway activity – revised, SAR follow-up (AID 2333); type: functional
T1 sequence (Q9Y239 whole entry): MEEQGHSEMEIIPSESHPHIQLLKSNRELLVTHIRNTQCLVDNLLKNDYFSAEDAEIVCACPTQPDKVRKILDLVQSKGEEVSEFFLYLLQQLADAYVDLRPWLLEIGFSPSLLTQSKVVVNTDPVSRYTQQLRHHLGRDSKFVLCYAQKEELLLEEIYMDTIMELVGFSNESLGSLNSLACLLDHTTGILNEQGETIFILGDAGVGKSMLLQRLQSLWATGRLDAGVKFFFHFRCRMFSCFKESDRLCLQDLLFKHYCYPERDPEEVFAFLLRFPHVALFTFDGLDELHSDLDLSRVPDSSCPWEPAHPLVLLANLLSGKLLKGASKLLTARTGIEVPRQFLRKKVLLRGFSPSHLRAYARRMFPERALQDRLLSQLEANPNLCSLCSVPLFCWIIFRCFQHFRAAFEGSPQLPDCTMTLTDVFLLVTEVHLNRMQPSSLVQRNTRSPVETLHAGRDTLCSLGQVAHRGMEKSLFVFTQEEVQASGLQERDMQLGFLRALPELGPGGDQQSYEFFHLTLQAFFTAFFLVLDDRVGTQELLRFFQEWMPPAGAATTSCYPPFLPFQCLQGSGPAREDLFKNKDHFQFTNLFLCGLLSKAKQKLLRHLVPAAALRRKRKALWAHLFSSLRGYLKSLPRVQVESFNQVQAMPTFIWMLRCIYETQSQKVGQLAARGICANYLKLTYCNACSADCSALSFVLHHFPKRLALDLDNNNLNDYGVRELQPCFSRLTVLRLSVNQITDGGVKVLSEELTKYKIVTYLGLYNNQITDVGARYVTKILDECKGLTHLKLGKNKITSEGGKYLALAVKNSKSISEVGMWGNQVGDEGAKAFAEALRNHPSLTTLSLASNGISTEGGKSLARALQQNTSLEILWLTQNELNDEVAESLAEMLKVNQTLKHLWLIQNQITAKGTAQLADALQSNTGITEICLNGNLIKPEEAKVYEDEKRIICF

[10] = biological target: T2, Cyclin-dependent kinase 5/CDK5 activator 1 (Homo sapiens, UniProt Q00535); test: blockade of human CDK5 activity – biochemical, cherry-picked samples, set 2, dose response (AID 504545)
T2 sequence (Q00535 whole entry): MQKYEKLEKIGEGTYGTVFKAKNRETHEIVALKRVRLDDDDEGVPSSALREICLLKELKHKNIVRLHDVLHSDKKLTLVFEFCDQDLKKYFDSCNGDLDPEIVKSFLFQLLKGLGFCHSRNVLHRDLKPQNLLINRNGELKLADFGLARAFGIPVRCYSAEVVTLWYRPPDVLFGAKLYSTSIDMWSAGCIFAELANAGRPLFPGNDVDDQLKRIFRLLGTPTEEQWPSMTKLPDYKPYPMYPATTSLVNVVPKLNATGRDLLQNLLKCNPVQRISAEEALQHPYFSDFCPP
T2 sequence (Q15078 whole entry, further chain): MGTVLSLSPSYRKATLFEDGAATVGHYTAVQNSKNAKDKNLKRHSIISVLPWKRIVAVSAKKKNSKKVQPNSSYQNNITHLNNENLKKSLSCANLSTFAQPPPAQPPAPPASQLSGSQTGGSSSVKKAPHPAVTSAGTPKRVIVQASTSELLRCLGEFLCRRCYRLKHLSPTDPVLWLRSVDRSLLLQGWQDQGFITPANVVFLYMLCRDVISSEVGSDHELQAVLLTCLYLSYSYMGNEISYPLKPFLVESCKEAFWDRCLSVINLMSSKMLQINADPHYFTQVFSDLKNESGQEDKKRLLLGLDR

[11] = biological target: Mitogen-activated protein kinase 10 (Homo sapiens, UniProt P53779); test: Dose response biochemical screening assay for inhibitors of c-Jun N-Terminal Kinase 3 (JNK3). [Related pubchem assays: 746 ]
Chain of Mitogen-activated protein kinase 10 (P53779 whole entry): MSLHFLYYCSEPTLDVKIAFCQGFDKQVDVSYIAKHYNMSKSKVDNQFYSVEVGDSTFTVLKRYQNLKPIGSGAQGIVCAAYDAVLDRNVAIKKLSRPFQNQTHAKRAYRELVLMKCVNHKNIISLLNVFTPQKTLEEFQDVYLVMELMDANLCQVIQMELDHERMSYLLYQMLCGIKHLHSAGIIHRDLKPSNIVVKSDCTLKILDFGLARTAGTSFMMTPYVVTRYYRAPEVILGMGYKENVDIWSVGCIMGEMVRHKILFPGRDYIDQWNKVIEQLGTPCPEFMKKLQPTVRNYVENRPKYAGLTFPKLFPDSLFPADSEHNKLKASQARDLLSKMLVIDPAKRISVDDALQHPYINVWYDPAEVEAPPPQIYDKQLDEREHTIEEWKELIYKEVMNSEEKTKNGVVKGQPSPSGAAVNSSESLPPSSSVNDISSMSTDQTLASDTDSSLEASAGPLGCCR

[12] = biological target: T2, Cyclin-dependent kinase 5/CDK5 activator 1; test: human CDK5 activity blockade – biochemical, microfluidic mobility shift, dry powder, selectivity assay for GSK-3 alpha inhibitor project, dose response (AID 588430)
[13] = biological target: Glycogen synthase kinase-3 alpha (Homo sapiens, UniProt P49840); test: Inhibition of Human GSK-3 alpha Activity Measured in Biochemical System Using Microfluidics - 2063-06_Inhibitor_Dose_DryPowder_Activity_Set2. [Related pubchem assays (depositor defined):AID2709]
Chain of Glycogen synthase kinase-3 alpha (P49840 whole entry, the tested form may be a part): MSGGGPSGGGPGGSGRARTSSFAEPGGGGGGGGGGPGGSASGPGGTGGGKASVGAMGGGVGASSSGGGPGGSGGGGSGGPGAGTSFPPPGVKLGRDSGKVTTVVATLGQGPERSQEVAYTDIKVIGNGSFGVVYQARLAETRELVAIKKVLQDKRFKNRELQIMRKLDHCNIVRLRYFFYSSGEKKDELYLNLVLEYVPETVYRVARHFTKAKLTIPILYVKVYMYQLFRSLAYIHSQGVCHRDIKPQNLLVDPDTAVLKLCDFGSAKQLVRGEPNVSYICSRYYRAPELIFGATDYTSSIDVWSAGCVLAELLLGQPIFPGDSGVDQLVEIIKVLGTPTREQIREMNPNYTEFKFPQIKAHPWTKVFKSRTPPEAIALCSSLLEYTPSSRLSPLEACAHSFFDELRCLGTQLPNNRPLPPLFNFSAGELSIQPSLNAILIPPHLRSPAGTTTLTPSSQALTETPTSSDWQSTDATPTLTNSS

[14] = biological target: Photoreceptor-specific nuclear receptor (Homo sapiens, UniProt Q9Y5X4); type: functional, cell-based;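 note: CHO-S cells with Gal4-NCOR and VP16-NR2E3 two-hybrid luciferase reporter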
Chain of Photoreceptor-specific nuclear receptor (Q9Y5X4 whole entry, the tested form may be a part): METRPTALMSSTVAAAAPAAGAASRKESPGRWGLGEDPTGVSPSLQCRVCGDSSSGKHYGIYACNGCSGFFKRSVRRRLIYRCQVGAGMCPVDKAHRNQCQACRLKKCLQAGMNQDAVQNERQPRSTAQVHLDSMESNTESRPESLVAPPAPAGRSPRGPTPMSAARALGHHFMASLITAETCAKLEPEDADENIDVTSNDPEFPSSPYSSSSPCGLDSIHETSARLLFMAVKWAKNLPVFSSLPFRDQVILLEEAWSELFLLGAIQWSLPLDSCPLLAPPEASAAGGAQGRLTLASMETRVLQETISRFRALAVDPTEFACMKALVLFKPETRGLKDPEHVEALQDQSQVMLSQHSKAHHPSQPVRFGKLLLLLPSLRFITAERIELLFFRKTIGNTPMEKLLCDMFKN

[15] = biological target: Glycogen synthase kinase-3 beta (Homo sapiens, UniProt P49841); test: Inhibition of Human GSK-3 beta Activity Measured in Biochemical System Using Microfluidics - 2063-05_Inhibitor_Dose_DryPowder_Activity_Set2. [Related pubchem assays (depositor defined):AID2709]
Chain of Glycogen synthase kinase-3 beta (P49841 whole entry): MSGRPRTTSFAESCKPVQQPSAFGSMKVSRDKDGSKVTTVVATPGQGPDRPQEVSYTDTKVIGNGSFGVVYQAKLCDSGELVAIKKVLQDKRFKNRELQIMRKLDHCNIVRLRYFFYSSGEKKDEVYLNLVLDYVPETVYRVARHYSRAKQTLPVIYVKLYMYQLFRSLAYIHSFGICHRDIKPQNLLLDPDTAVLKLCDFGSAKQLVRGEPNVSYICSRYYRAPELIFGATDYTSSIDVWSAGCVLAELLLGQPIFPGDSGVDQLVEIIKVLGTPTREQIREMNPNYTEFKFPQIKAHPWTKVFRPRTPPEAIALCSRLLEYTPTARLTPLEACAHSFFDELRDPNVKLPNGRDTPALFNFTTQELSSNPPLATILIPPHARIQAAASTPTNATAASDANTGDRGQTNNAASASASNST

SMILES: O=C(c1ccc(Cl)cc1)N1CCN(c2cccnc2)CC1
- AC50 (NIH3T3): 190 µM (active)
- AC50 (Candida albicans [1]): 43.5 µM (active)
- AC50 (Candida albicans [2]): 25 µM (active)
- AC50 (Candida albicans [3]): 30.5 µM (active)
- AC50 (Candida albicans [4]): 20.4 µM (active)

SMILES: CC(C)(C)c1ccc(-c2nc3ccccc3s2)cc1
- IC50 (Tumor necrosis factor): 0.246 µM (active)
- AC50 (H4 [5]): 0.205 µM (active)
- AC50 [6]: 25.8 µM (active)
- AC50 (H4 [7]): 0.00226 µM (active)
- IC50 (HEK293): > 20 µM (inactive)
- AC50 (H4 [8]): 0.011 µM (active)
- IC50 [9]: 0.0318 µM (active)

SMILES: COc1cccc(C(=O)c2sc(NC(C)C)nc2N)c1
- AC50 [10]: 7.12 µM (active)
- IC50 [11]: > 31 µM (not active)
- AC50 [12]: 1.11 µM (active)
- AC50 [13]: 0.288 µM (active)
- IC50 [14]: 0.0182 µM (active)
- AC50 [15]: 0.252 µM (active)

Source: ChEMBL document CHEMBL1201862, “PubChem BioAssay data set” (2004)
